*1 amine or outer side, *2 acyl side, *3 side chain or, on linkers, in order; H or OH if unused. Where a SMILES comes first, the peptide text is derived from it. [ ]: non-standard residue; d: D form. The star is where a group is joined. Pro(3S,4R-(CH2)3) = O=C(O)[C@H]1NC[C@@H]2CCC[C@@H]21; Pyrazinecarbonyl = O=C(c1cnccn1)*; X1 = CCCC(N[*:1])C(=O)C(=O)[*:2]
Columns and labels:
[1] = Binding affinity towards Protease using PNA assay in rats
[2] = Cytotoxic activity against Protease in […] Huh-7 cells
[3] = Cytotoxic activity against Protease in […] Huh-7 cells at 100 uM concentration
[4] = Cytotoxic activity against Protease in […] Huh-7 cells; remark: listed apart in the source

| SMILES | Ki [1] [µM] | IC50 [2] [µM] | IC50 [3] [µM] | IC50 [4] [µM] |
| --- | --- | --- | --- | --- |
| CCCC(NC(=O)[C@@H]1[C@H]2CC[C@H](F)[C@H]2CN1C(=O)[C@@H](NC(=O)[C@@H](NC(=O)c1cnccn1)C(C)C)C(C)C)C(=O)C(=O)N[C@@H](Cc1ccccc1)C(=O)O (stereo partly drawn) [(S)-2-((S)-3-{[(1S,5S,6R)-4-Fluoro-2-((S)-3-methyl-2-{(S)-3-methyl-2-[(pyrazine-2-carbonyl)-amino]-butyrylamino}-butyryl)-octahydro-cyclopenta[c]pyrrole-1-carbonyl]-amino}-2-oxo-hexanoylamino)-3-phenyl-propionic acid] | 0.082 | > 100 | – | – |
| CCCC(NC(=O)[C@@H]1[C@H]2CC[C@@H](OCOC)C2CN1C(=O)[C@@H](NC(=O)[C@@H](NC(=O)c1cnccn1)C(C)C)C(C)C)C(=O)C(=O)N[C@@H](C)c1ccccc1 (stereo partly drawn) [(1S,5S)-4-Methoxymethoxy-2-((S)-3-methyl-2-{(S)-3-methyl-2-[(pyrazine-2-carbonyl)-amino]-butyrylamino}-butyryl)-octahydro-cyclopenta[c]pyrrole-1-carboxylic acid [(R)-1-((S)-1-phenyl-ethylaminooxalyl)-butyl]-amide] | 0.332 | – | 33 | – |
| CCCC(NC(=O)[C@@H]1[C@H]2CC=C[C@H]2CN1C(=O)[C@@H](NC(=O)[C@@H](NC(=O)c1cnccn1)C(C)C)C(C)C)C(=O)C(=O)NC1CC1 (stereo partly drawn) [(1S,5S,6R)-2-((S)-3-Methyl-2-{(S)-3-methyl-2-[(pyrazine-2-carbonyl)-amino]-butyrylamino}-butyryl)-1,2,3,3a,6,6a-hexahydro-cyclopenta[c]pyrrole-1-carboxylic acid (1-cyclopropylaminooxalyl-butyl)-amide] | 0.09 | – | – | > 100 |
| CCCC(NC(=O)[C@@H]1[C@H]2CCC(F)(F)[C@H]2CN1C(=O)[C@@H](NC(=O)[C@@H](NC(=O)c1cnccn1)C(C)C)C(C)C)C(=O)C(=O)NC1CC1 (stereo partly drawn) [(1S,5S,6R)-4,4-Difluoro-2-((S)-3-methyl-2-{(S)-3-methyl-2-[(pyrazine-2-carbonyl)-amino]-butyrylamino}-butyryl)-octahydro-cyclopenta[c]pyrrole-1-carboxylic acid (1-cyclopropylaminooxalyl-butyl)-amide] | 0.37 | – | – | > 100 |
| CCCC(NC(=O)[C@@H]1[C@H]2CC=C[C@H]2CN1C(=O)[C@@H](NC(=O)[C@@H](NC(=O)c1cnccn1)C(C)C)C(C)C)C(=O)C(=O)N[C@@H](C)CC (stereo partly drawn) [(1S,5S,6R)-2-((S)-3-Methyl-2-{(S)-3-methyl-2-[(pyrazine-2-carbonyl)-amino]-butyrylamino}-butyryl)-1,2,3,3a,6,6a-hexahydro-cyclopenta[c]pyrrole-1-carboxylic acid [1-((S)-sec-butylaminooxalyl)-butyl]-amide] | 0.625 | – | – | – |
| CCCC(NC(=O)[C@@H]1[C@H]2CC[C@H](F)[C@H]2CN1C(=O)[C@@H](NC(=O)[C@@H](NC(=O)c1cnccn1)C(C)C)C(C)C)C(=O)C(=O)NC1CC1 (stereo partly drawn) [(1S,5S,6R)-4-Fluoro-2-((S)-3-methyl-2-{(S)-3-methyl-2-[(pyrazine-2-carbonyl)-amino]-butyrylamino}-butyryl)-octahydro-cyclopenta[c]pyrrole-1-carboxylic acid ((S)-1-cyclopropylaminooxalyl-butyl)-amide] | 0.3 | – | – | > 100 |
| CCCC(NC(=O)[C@@H]1[C@H]2CCC[C@H]2CN1C(=O)[C@@H](NC(=O)[C@@H](NC(=O)c1cnccn1)C(C)C)C(C)C)C(=O)C(=O)N[C@@H](Cc1ccccc1)C(=O)O (stereo partly drawn) [2-(3-{[(1S,5S,6R)-2-((S)-3-Methyl-2-{(S)-3-methyl-2-[(pyrazine-2-carbonyl)-amino]-butyrylamino}-butyryl)-octahydro-cyclopenta[c]pyrrole-1-carbonyl]-amino}-2-oxo-hexanoylamino)-3-phenyl-propionic acid] (Pyrazinecarbonyl-VV[Pro(3S,4R-(CH2)3)][X1]F-OH) | 0.068 | – | – | > 100 |
| CCCC(NC(=O)C1[C@H]2CCC(=O)[C@H]2CN1C(=O)[C@@H](NC(=O)[C@@H](NC(=O)c1cnccn1)C(C)C)C(C)C)C(=O)C(=O)NC1CC1 (stereo partly drawn) [(5S,6R)-2-((S)-3-Methyl-2-{(S)-3-methyl-2-[(pyrazine-2-carbonyl)-amino]-butyrylamino}-butyryl)-4-oxo-octahydro-cyclopenta[c]pyrrole-1-carboxylic acid (1-cyclopropylaminooxalyl-butyl)-amide] | 0.51 | – | – | > 100 |
| CCCC(NC(=O)[C@@H]1[C@H]2CCC(F)(F)[C@H]2CN1C(=O)[C@@H](NC(=O)[C@@H](NC(=O)c1cnccn1)C(C)C)C(C)C)C(=O)C(=O)N[C@@H](Cc1ccccc1)C(=O)O (stereo partly drawn) [(S)-2-(3-{[(1S,5S,6R)-4,4-Difluoro-2-((S)-3-methyl-2-{(S)-3-methyl-2-[(pyrazine-2-carbonyl)-amino]-butyrylamino}-butyryl)-octahydro-cyclopenta[c]pyrrole-1-carbonyl]-amino}-2-oxo-hexanoylamino)-3-phenyl-propionic acid] | 0.176 | > 100 | – | – |
| CCCC(NC(=O)[C@@H]1[C@H]2CC=C[C@H]2CN1C(=O)[C@@H](NC(=O)[C@@H](NC(=O)c1cnccn1)C(C)C)C(C)C)C(=O)C(=O)N[C@@H](C)c1ccccc1 (stereo partly drawn) [(1S,5S,6R)-2-((S)-3-Methyl-2-{(S)-3-methyl-2-[(pyrazine-2-carbonyl)-amino]-butyrylamino}-butyryl)-1,2,3,3a,6,6a-hexahydro-cyclopenta[c]pyrrole-1-carboxylic acid [1-((S)-1-phenyl-ethylaminooxalyl)-butyl]-amide] | 0.88 | – | – | – |
| CCCC(NC(=O)C1[C@H]2CCC(=O)[C@H]2CN1C(=O)[C@@H](NC(=O)[C@@H](NC(=O)c1cnccn1)C(C)C)C(C)C)C(=O)C(=O)Nc1ccccc1 (stereo partly drawn) [(3aR,5S)-2-((S)-3-Methyl-2-{(S)-3-methyl-2-[(pyrazine-2-carbonyl)-amino]-butyrylamino}-butyryl)-4-oxo-octahydro-cyclopenta[c]pyrrole-1-carboxylic acid (1-phenylaminooxalyl-butyl)-amide] | 0.017 | – | – | > 100 |
| CCCC(NC(=O)[C@@H]1[C@H]2CC[C@H](F)[C@H]2CN1C(=O)[C@@H](NC(=O)[C@@H](NC(=O)c1cnccn1)C(C)C)C(C)C)C(=O)C(=O)N[C@@H](C)c1ccccc1 (stereo partly drawn) [(1S,5S,6R)-4-Fluoro-2-((S)-3-methyl-2-{(S)-3-methyl-2-[(pyrazine-2-carbonyl)-amino]-butyrylamino}-butyryl)-octahydro-cyclopenta[c]pyrrole-1-carboxylic acid [(S)-1-((S)-1-phenyl-ethylaminooxalyl)-butyl]-amide] | 0.315 | – | – | – |
| CCCC(NC(=O)[C@@H]1[C@H]2CC[C@@H](OCOC)C2CN1C(=O)[C@@H](NC(=O)[C@@H](NC(=O)c1cnccn1)C(C)C)C(C)C)C(=O)C(=O)NC1CC1 (stereo partly drawn) [(1S,5S)-4-Methoxymethoxy-2-((S)-3-methyl-2-{(S)-3-methyl-2-[(pyrazine-2-carbonyl)-amino]-butyrylamino}-butyryl)-octahydro-cyclopenta[c]pyrrole-1-carboxylic acid ((R)-1-cyclopropylaminooxalyl-butyl)-amide] | 0.415 | – | – | > 100 |
